From US7605156B2, “Methods for the use of inhibitors of cytosolic phospholipase A2” (Wyeth, priority 2001, dated 2009)

Target: T1, cPLA2 (Homo sapiens, UniProt P47712)
T1 sequence (P47712 1-749): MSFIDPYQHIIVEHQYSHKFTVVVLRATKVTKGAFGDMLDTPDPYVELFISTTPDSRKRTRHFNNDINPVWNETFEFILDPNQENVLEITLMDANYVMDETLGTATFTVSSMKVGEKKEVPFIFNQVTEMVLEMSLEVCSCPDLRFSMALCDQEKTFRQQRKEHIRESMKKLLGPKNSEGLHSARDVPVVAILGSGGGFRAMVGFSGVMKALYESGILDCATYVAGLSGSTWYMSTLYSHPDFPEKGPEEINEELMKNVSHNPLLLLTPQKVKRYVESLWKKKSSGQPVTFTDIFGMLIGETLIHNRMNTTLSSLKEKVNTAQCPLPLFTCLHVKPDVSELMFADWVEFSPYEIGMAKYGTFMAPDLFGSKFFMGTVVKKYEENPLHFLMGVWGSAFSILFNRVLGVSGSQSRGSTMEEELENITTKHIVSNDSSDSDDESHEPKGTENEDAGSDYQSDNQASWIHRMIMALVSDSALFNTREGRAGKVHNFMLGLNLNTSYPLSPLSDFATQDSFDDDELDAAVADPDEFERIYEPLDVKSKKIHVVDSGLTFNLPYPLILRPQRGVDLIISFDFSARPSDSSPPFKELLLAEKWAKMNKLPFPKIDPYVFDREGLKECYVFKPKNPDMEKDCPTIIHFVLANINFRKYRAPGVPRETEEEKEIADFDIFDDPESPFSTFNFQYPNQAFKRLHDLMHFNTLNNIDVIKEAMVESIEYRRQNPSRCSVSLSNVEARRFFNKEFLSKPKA
Assay: Coumarine assay (hydrolysis of 7-hydroxycoumarinyl 6-heptenoate)
Assay type: biochemical
Conditions: 60 μM 7-hydroxycoumarinyl 6-heptenoate, pH 7.5; read-out: Coumarin IC50

Compound	IC50 [nM]
O=C(O)c1ccc(OCCc2c(CCNS(=O)(=O)c3c(Cl)cc(Cl)cc3Cl)n(C(c3ccccc3)c3ccccc3)c3ccc(Cl)cc23)cc1 [Example 161, 4-{2-[1-benzhydryl-5-chloro-2-(2-{[(2,4,6-trichlorophenyl)sulfonyl]amino}ethyl)-1H-indol-3-yl]ethoxy}benzoic acid]	320
O=C(O)c1ccc(CCCc2c(CCNS(=O)(=O)c3cc(Cl)c(F)cc3F)n(C(c3ccccc3)c3ccccc3)c3ccc(Cl)cc23)cc1 [Example 166, 4-{3-[1-benzhydryl-5-chloro-2-(2-{[(5-chloro-2,4-difluorophenyl)sulfonyl]amino}ethyl)-1H-indol-3-yl]propyl}benzoic acid]	400
COc1cc(C)ccc1S(=O)(=O)NCCc1c(CCCc2ccc(C(=O)O)cc2)c2cc(Cl)ccc2n1C(c1ccccc1)c1ccccc1 [Example 167, 4-{3-[1-benzhydryl-5-chloro-2-(2-{[(2-methoxy-4-methylphenyl)sulfonyl]amino}ethyl)-1H-indol-3-yl]propyl}benzoic acid]	190
O=C(O)c1ccc(CCCc2c(CCNS(=O)(=O)c3c(Cl)cc(Cl)cc3Cl)n(C(c3ccccc3)c3ccccc3)c3ccc(Cl)cc23)cc1 [Example 154, 4-{3-[1-benzhydryl-5-chloro-2-(2-([(2,4,6-trichlorophenyl)sulfonyl]amino}ethyl)-1H-indol-3-yl]propyl}benzoic acid]	350
4-[2-(1-benzhydryl-5-chloro-2-{2-[({2-[(3R,5S)-3,5-dimethylmorpholin-4-yl]ethyl}sulfonyl)amino]ethyl}-1H-indol-3-yl)ethoxy]benzoic acid [Example 250]	2100
O=C(O)c1ccc(OCCc2c(CCNS(=O)(=O)Cc3cc(F)cc(F)c3)n(C(c3ccccc3)c3ccccc3)c3ccc(Cl)cc23)cc1 [Example 35, 4-{2-[1-benzhydryl-5-chloro-2-(2-{[(3,5-difluorobenzyl)-sulfonyl]amino}ethyl)-1H-indol-3-yl]ethoxy}benzoic acid]	330
Nc1ccccc1CS(=O)(=O)NCCc1c(CCOc2ccc(C(=O)O)cc2)c2cc(Cl)ccc2n1C(c1ccccc1)c1ccccc1 [Example 16]	980
COc1cc(C)ccc1S(=O)(=O)NCCc1c(CCOc2ccc(C(=O)O)cc2)c2cc(Cl)ccc2n1C(c1ccccc1)c1ccccc1 [Example 171, 4-{2-[1-benzhydryl-5-chloro-2-(2-{[(2-methoxy-4-methylphenyl)sulfonyl]amino}ethyl)-1H-indol-3-yl]ethoxy}benzoic acid]	360
O=C(O)c1ccc(CCCc2c(CCNS(=O)(=O)c3ccccc3-c3ccccc3)n(C(c3ccccc3)c3ccccc3)c3ccc(Cl)cc23)cc1 [Example 157, 4-[3-(1-benzhydryl-2-{2-[(1,1′-biphenyl-2-ylsulfonyl)amino]ethyl}-5-chloro-1H-indol-3-yl)propyl]benzoic acid]	200
CC(C)Oc1ccccc1S(=O)(=O)NCCc1c(CCOc2ccc(C(=O)O)cc2)c2cc(Cl)ccc2n1C(c1ccccc1)c1ccccc1 [Example 185, 4-(2-{1-Benzhydryl-5-chloro-2-[2-(2-isopropoxy-benzenesulfonylamino)-ethyl]-1H-indol-3-yl}-ethoxy)benzoic acid]	170
COc1ccc(S(=O)(=O)NCCc2c(CCCc3ccc(C(=O)O)cc3)c3cc(Cl)ccc3n2C(c2ccccc2)c2ccccc2)c2nonc12 [Example 173, 4-{3-[1-benzhydryl-5-chloro-2-(2-{[(7-methoxy-2,1,3-benzoxadiazol-4-yl)sulfonyl]amino}ethyl)-1H-indol-3-yl]propyl}benzoic acid]	400
COc1ccc(S(=O)(=O)NCCc2c(CCOc3ccc(C(=O)O)cc3)c3cc(Cl)ccc3n2C(c2ccccc2)c2ccccc2)c2nonc12 [Example 175, 4-{2-[1-benzhydryl-5-chloro-2-(2-{[(7-methoxy-2,1,3-benzoxadiazol-4-yl)sulfonyl]amino}ethyl)-1H-indol-3-yl]ethoxy}benzoic acid]	370
O=C(O)c1ccc(OCCc2c(CCNS(=O)(=O)c3c(F)cc(F)cc3F)n(C(c3ccccc3)c3ccccc3)c3ccc(Cl)cc23)cc1 [Example 196, 4-(2-{1-Benzhydryl-5-chloro-2-[2-(2,4,6-trifluoro-benzenesulfonylamino)-ethyl]-1H-indol-3-yl}-ethoxy)-benzoic acid]	560

Other lines, results leading:

IC50 [nM]	Compound
370	Cc1ccc(S(=O)(=O)NCCc2c(CCOc3ccc(C(=O)O)cc3)c3cc(Cl)ccc3n2C(c2ccccc2)c2ccccc2)cc1Cl [Example 260, 4-{2-[1-benzhydryl-5-chloro-2-(2-{[(3-chloro-4-methylphenyl)sulfonyl]amino}ethyl)-1H-indol-3-yl]ethoxy}benzoic acid]
2600	O=C(O)c1ccc(OCCc2c(CCNS(=O)(=O)c3ccc(-c4ccc(F)cc4)cc3)n(C(c3ccccc3)c3ccccc3)c3ccc(Cl)cc23)cc1 [Example 217, 4-{2-[1-benzhydryl-5-chloro-2-(2-{[(4′-fluoro-1,1′-biphenyl-4-yl)sulfonyl]amino}ethyl)-1H-indol-3-yl]ethoxy}benzoic acid]
1900	CC(CCl)c1ccccc1S(=O)(=O)NCCc1c(CCOc2ccc(C(=O)O)cc2)c2cc(Cl)ccc2n1C(c1ccccc1)c1ccccc1 (centres unmarked) [Example 278]
550	O=C(O)c1ccc(CCCc2c(CCNS(=O)(=O)c3ccccc3Cl)n(C(c3ccccc3)c3ccccc3)c3ccccc23)cc1 [Example 295, 4-{3-[1-benzhydryl-2-(2-{[(2-chlorophenyl)sulfonyl]amino}ethyl)-1H-indol-3-yl]propyl}benzoic acid]
600	O=C(O)c1ccc(OCCc2c(CCNS(=O)(=O)c3ccccc3F)n(C(c3ccccc3)c3ccccc3)c3ccc(Cl)cc23)cc1 [Example 223]
690	CS(=O)(=O)c1ccc(S(=O)(=O)NCCc2c(CCOc3ccc(C(=O)O)cc3)c3cc(Cl)ccc3n2C(c2ccccc2)c2ccccc2)cc1 [Example 203, 4-(2-{1-benzhydryl-5-chloro-2-[2({[4-(methylsulfony)phenyl]sulfonyl}amino)ethyl]-1H-indol-3-yl}ethoxy)benzoic acid]
500	Cc1nc(S(=O)(=O)NCCc2c(CCCc3ccc(C(=O)O)cc3)c3cc(Cl)ccc3n2C(c2ccccc2)c2ccccc2)cn1C [Example 257, 4-{3-[1-benzhydryl-5-chloro-2-(2-{[(1,2-dimethyl-1H-imidazol-4-yl)sulfonyl]amino}ethyl)-1H-indol-3-yl]propyl}benzoic acid]
500	O=C(O)c1cccc(OCCc2c(CCNS(=O)(=O)Cc3ccccc3)n(C(c3ccccc3)c3ccccc3)c3ccc(Cl)cc23)c1 [Example 283]
240	O=C(O)c1ccc(CCCc2c(CCNS(=O)(=O)c3ccccc3C(F)(F)F)n(C(c3ccccc3)c3ccccc3)c3ccc(Cl)cc23)cc1 [Example 208]
400	O=C(O)c1ccc(OCCc2c(CCNS(=O)(=O)c3c(F)cccc3F)n(C(c3ccccc3)c3ccccc3)c3ccc(Cl)cc23)cc1 [Example 225, 4-{2-[1-benzhydryl-5-chloro-2-(2-{[(2,6-difluorophenyl)sulfonyl]amino}ethyl)-1H-indol-3-yl]ethoxy}benzoic acid]
370	O=C(O)c1ccc(OCCc2c(CCNS(=O)(=O)c3ccccc3[N+](=O)[O-])n(C(c3ccccc3)c3ccccc3)c3ccc(Cl)cc23)cc1 [Example 265, 4-{2-[1-benzhydryl-5-chloro-2-(2-{[(2-nitrophenyl)sulfonyl]amino}ethyl)-1H-indol-3-yl]ethoxy}benzoic acid]
350	COc1ccc(S(=O)(=O)NCCc2c(CCCc3ccc(C(=O)O)cc3)c3cc(Cl)ccc3n2C(c2ccccc2)c2ccccc2)c([N+](=O)[O-])c1 [Example 200, 4-(3-{1-Benzhydryl-5-chloro-2-[2-(4-methoxy-2-nitro-benzenesulfonylamino)-ethyl]-1H-indol-3-yl}-propyl)-benzoic acid]
140	Cc1cccc(Cl)c1S(=O)(=O)NCCc1c(CCCc2ccc(C(=O)O)cc2)c2cc(Cl)ccc2n1C(c1ccccc1)c1ccccc1 [Example 226]
350	O=C(O)c1ccc(OCCc2c(CCNS(=O)(=O)c3ccccc3C(F)(F)F)n(C(c3ccccc3)c3ccccc3)c3ccc(Cl)cc23)cc1 [Example 209, 4-[2-{1-Benzhydryl-5-chloro-2-[2-({[2-(trifluoromethyl)phenyl]sulfonyl}amino)ethyl]-1H-indol-3-yl}ethoxy)benzoic acid]
730	CC(C)C1CCCN1CCS(=O)(=O)NCCc1c(CCOc2ccc(C(=O)O)cc2)c2cc(Cl)ccc2n1C(c1ccccc1)c1ccccc1 (centres unmarked) [Example 252, 4-(2-{1-benzhydryl-5-chloro-2-[2-({[2-(2-isopropylpyrrolidin-1-yl)ethyl]sulfonyl}amino)ethyl]-1H-indol-3-yl}ethoxy)benzoic acid]
150	Cc1cccc(C)c1S(=O)(=O)NCCc1c(CCOc2ccc(C(=O)O)cc2)c2cc(Cl)ccc2n1C(c1ccccc1)c1ccccc1 [Example 271, 4-{2-[1-benzhydryl-5-chloro-2-(2-{[(2,6-dimethylphenyl)sulfonyl]amino}ethyl)-1H-indol-3-yl]ethoxy}benzoic acid]
